In ChEMBL document CHEMBL3352069, “Thieno[2,3-b]pyridines as negative allosteric modulators of metabotropic GluR5 receptors: hit-to-lead optimization” (Bioorg Med Chem Lett, 2014):

Experiments:
[1] = biological target: Metabotropic glutamate receptor 5 (Rattus norvegicus) (UniProt P31424); assay: Displacement of [3H]-M-MPEP from mGluR5 in rat cerebrocortical membrane preparation at 1 uM; format: cell membranes
[2] = biological target: T1, Metabotropic glutamate receptor 5 (Rattus norvegicus, UniProt P31424); assay: Displacement of [3H]-M-MPEP from mGluR5 in rat cerebrocortical membrane preparation; format: cell membranes
[3] = biological target: T1, Metabotropic glutamate receptor 5; assay: Inhibition of mGluR5 in rat embryo neuronal culture assessed as calcium level by Fluo-4/AM dye based fluorometry; format: functional
[4] = test system: Rattus norvegicus; assay: Anxiolytic activity in ip dosed rat assessed as increase in number of shocks measured for 30 mins Vogel punished drinking model; format: functional, organism-based

T1 sequence (P31424 whole entry): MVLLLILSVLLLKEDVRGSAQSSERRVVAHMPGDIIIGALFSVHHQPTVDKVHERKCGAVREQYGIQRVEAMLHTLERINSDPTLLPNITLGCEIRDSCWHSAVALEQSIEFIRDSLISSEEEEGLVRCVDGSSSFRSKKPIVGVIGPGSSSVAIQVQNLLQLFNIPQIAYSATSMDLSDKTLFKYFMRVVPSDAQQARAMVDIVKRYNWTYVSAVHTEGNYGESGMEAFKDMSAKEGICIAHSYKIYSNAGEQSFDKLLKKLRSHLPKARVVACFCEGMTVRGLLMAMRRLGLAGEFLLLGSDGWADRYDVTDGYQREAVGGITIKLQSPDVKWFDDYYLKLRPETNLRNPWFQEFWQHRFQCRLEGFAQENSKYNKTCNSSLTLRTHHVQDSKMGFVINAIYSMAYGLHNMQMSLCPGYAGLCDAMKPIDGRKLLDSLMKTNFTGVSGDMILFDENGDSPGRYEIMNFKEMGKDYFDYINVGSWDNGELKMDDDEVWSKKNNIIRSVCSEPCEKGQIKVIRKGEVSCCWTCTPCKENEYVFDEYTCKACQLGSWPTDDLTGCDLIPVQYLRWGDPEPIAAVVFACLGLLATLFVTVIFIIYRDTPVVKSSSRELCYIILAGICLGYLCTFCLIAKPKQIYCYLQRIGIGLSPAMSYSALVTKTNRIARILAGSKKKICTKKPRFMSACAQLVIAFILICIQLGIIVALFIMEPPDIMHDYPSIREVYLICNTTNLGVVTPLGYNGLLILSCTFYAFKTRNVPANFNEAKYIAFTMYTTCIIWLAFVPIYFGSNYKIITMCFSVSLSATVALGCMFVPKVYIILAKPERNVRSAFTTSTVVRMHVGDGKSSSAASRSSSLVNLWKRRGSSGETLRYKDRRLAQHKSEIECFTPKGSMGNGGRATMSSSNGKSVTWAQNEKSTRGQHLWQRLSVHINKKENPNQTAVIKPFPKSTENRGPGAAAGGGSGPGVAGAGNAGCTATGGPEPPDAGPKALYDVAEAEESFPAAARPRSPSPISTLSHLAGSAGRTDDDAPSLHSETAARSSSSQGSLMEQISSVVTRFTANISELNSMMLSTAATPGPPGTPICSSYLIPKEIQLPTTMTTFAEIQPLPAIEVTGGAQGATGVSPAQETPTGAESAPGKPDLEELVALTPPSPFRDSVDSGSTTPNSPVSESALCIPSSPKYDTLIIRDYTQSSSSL
Metabotropic glutamate receptor 5 (Rattus norvegicus), sequence (P31424 21-1203 limits assumed): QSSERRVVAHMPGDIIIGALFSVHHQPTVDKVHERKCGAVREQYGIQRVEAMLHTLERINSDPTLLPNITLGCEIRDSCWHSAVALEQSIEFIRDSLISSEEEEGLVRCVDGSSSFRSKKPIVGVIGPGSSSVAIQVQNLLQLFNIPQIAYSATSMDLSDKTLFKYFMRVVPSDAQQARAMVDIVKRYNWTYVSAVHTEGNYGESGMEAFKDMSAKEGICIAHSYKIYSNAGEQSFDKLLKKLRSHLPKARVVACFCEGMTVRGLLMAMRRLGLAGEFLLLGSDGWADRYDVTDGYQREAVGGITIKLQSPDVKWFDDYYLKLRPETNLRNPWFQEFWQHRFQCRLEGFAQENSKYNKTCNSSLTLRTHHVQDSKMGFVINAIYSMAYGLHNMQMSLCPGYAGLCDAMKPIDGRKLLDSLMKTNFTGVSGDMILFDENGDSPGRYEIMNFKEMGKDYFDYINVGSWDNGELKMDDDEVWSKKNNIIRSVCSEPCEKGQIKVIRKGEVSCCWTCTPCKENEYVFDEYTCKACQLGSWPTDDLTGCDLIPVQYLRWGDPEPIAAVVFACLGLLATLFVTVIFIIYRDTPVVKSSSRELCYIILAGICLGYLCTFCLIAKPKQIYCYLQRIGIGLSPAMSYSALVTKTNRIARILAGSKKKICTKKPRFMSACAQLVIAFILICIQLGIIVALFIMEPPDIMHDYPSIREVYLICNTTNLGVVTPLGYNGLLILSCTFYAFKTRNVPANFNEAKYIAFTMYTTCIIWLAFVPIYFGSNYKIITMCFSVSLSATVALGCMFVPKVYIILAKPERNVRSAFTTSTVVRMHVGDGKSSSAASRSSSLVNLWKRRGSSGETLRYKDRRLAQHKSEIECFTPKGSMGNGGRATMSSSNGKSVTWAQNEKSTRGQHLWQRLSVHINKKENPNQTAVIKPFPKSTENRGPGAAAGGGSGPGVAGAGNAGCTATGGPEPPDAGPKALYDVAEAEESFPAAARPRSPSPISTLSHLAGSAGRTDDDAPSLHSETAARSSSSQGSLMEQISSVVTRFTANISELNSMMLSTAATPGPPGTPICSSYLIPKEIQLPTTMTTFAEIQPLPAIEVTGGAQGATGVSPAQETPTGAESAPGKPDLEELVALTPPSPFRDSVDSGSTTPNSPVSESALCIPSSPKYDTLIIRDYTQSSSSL

Compound | inhibition [1] | Ki [2] | also measured
CN(Cc1ccc(F)cc1)C(=O)c1sc2ncccc2c1-c1ccc(Cl)cc1 | 13% |  | 
O=C(Cc1ccc(F)cc1)c1sc2ncccc2c1-c1ccc(F)cc1 |  | 140 nM | 
O=C(CCc1ccc(F)cc1)c1sc2ncccc2c1-c1ccc(F)cc1 |  | 180 nM | IC50 [3]: 1000 nM
Fc1ccc(-c2nnc(-c3sc4ncccc4c3-c3ccc(Cl)cc3)o2)cc1 | 24% |  | 
O=C(CCc1cccc(F)c1)c1sc2ncccc2c1-c1ccc(F)cc1 |  | 224 nM | 
O=C(OCc1ccc(F)cc1)c1sc2ncccc2c1-c1ccc(Cl)cc1 |  | 41 nM | IC50 [3]: 150 nM
O=C(Nc1ccc(F)cc1)c1sc2ncccc2c1-c1ccc(Cl)cc1 | 0% |  | 
COc1ccc(CCC(=O)c2sc3ncccc3c2-c2ccccc2)cc1 |  | 2500 nM | IC50 [3]: 8000 nM
O=S(=O)(c1ccc(Cl)cc1)c1sc2ncccc2c1-c1ccc(Cl)cc1 |  | 12.3 nM | IC50 [3]: 46 nM; Activity [4]: Dose-dependent effect
c1ccc(-c2csc3ncccc23)cc1 | 0% |  | 
O=C(CCc1ccccc1)c1sc2ncccc2c1-c1ccccc1 |  | 730 nM | IC50 [3]: 3300 nM
O=C(CCc1ccc(F)cc1)c1[nH]c2ccccc2c1-c1ccc(F)cc1 | 4% |  | 
OC(CCc1ccc(F)cc1)c1sc2ncccc2c1-c1ccc(F)cc1 (stereo not given) | 3% |  | 
Fc1ccc(C/C=C/c2sc3ncccc3c2-c2ccc(F)cc2)cc1 | 12% |  | 
O=C(Oc1ccc(F)cc1)c1sc2ncccc2c1-c1ccc(Cl)cc1 | 15% |  | 
O=C(CCc1ccc(F)cc1)c1sc2ccccc2c1-c1ccc(F)cc1 | 8% |  | 
O=C(CCc1ccc(F)cc1)c1sc2ncccc2c1-c1ccccc1 |  | 343 nM | IC50 [3]: 2100 nM
Fc1ccc(-c2c(C3=NOC(c4ccc(F)cc4)C3)sc3ncccc23)cc1 (stereo not given) | 52% |  | 
CN(C(=O)c1sc2ncccc2c1-c1ccc(F)cc1)c1ccc(F)cc1 | 19% |  | 
Fc1ccc(CCCc2sc3ncccc3c2-c2ccc(F)cc2)cc1 | 0% |  | 
O=C(c1ccc(Cl)cc1)c1sc2ncccc2c1-c1ccc(F)cc1 | 30% |  | 
O=C(NCc1ccc(F)cc1)c1sc2ncccc2c1-c1ccc(F)cc1 |  | 311 nM | 
O=C(CCc1ccccc1)c1sccc1-c1ccc(F)cc1 | 0% |  | 
O=C(Cc1ccc(F)cc1)c1sc2ncccc2c1-c1ccc(Cl)cc1 |  | 83 nM | IC50 [3]: 350 nM
Fc1ccc(-c2nc(-c3sc4ncccc4c3-c3ccc(Cl)cc3)no2)cc1 | 0% |  | 
CC(=O)c1sc2ncccc2c1-c1ccccc1 | 17% |  | 
O=C(CCc1ccccc1)c1sccc1-c1ccccc1 | 0% |  | 
